This is an account of results in ChEMBL document CHEMBL1201862, “PubChem BioAssay data set” (2004).

A word on the IC50: it is the concentration at which inhibition is half-maximal. Usually EC50 stands for the midpoint of the concentration-response curve. A word on the AC50: it is the concentration at which the activity in the assay is half-maximal. For orientation: CC50 means the concentration that lowers cell viability or growth by half.

Assay [1] has as its target Induced myeloid leukemia cell differentiation protein Mcl-1 (Homo sapiens, UniProt Q07820). Format: functional.
For assay [2], the target named is T1, DNA dC->dU-editing enzyme APOBEC-3A (Homo sapiens, UniProt P31941). Description: APOBEC3A DNA deaminase inhibitors, dose response, biochemical (AID 504722). Format: functional.
T1 sequence (P31941 whole entry): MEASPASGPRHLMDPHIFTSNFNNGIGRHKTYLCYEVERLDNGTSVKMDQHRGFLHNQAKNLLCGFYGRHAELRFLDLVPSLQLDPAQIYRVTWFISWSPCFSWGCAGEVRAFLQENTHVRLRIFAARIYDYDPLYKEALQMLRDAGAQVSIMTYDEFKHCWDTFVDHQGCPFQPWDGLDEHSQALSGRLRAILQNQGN
Assay [3] has as its target Glucose-6-phosphate 1-dehydrogenase (Homo sapiens, UniProt P11413). Put plainly: human G6PD enzyme inhibitors, dose response, selectivity assay for P. falciparum G6PD inhibitor project, biochemical, fluorescence (AID 504792). Format: functional.
Assay [4] concerns the target T2, DNA dC->dU-editing enzyme APOBEC-3G (Homo sapiens, UniProt Q9HC16). Description: Dose Response confirmation of small molecule APOBEC3G DNA Deaminase Inhibitors via a fluorescence-based single-stranded DNA deaminase assay. [Related pubchem assays (depositor defined):AID493012, AID493028]. Format: functional.
Assay [5] concerns the target T3, Heat shock factor protein 1 (Mus musculus, UniProt P38532).
T3 sequence (P38532 whole entry): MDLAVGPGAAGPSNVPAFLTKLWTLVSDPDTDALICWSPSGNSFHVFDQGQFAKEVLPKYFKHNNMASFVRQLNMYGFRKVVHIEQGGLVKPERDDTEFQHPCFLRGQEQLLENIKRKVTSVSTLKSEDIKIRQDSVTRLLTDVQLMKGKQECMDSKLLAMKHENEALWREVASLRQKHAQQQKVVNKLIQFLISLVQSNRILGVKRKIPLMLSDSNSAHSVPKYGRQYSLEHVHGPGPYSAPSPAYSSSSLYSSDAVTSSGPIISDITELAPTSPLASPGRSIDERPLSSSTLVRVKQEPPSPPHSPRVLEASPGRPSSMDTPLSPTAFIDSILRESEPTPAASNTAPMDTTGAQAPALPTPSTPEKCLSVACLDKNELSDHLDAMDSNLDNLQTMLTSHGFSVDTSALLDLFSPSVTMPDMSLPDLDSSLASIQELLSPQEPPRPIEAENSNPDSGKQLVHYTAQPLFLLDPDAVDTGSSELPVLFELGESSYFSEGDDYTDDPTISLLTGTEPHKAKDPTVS
Put plainly: HSF1 potentiators in luciferase reporter cells, confirmation, cell-based, NIH3T3, luminescence, dose retest (AID 435004).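 Note: stress induced by proteasome inhibitor MG132 added 30 min after compound; luciferase reporter driven by HSF1 response element in NIH3T3 cells; actives raise luminescence as potentiators of the MG132 stress response.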 Format: functional.

Assay [6] addresses T4, SUMO-activating enzyme (Homo sapiens, UniProt Q9UBT2). Description: SUMOylation inhibitor hit validation, confirmation, SUMOylation inhibitor project, biochemical, AlphaScreen (AID 2018). Format: functional. For orientation: Bead proximity is the source of the signal in Alpha formats.
Assay [7] addresses T4, SUMO-activating enzyme. Put plainly: inhibitors of in vitro SUMOylation cascade, primary screen, biochemical, HTRF, uHTS (AID 2006). Format: protein-complex assay. Background: Time-resolved FRET reads energy transfer from a long-lived donor to a nearby acceptor.
A further assay deals with T5, ORF 73 (Human herpesvirus 8, UniProt O40947).
T5 sequence (O40947 whole entry): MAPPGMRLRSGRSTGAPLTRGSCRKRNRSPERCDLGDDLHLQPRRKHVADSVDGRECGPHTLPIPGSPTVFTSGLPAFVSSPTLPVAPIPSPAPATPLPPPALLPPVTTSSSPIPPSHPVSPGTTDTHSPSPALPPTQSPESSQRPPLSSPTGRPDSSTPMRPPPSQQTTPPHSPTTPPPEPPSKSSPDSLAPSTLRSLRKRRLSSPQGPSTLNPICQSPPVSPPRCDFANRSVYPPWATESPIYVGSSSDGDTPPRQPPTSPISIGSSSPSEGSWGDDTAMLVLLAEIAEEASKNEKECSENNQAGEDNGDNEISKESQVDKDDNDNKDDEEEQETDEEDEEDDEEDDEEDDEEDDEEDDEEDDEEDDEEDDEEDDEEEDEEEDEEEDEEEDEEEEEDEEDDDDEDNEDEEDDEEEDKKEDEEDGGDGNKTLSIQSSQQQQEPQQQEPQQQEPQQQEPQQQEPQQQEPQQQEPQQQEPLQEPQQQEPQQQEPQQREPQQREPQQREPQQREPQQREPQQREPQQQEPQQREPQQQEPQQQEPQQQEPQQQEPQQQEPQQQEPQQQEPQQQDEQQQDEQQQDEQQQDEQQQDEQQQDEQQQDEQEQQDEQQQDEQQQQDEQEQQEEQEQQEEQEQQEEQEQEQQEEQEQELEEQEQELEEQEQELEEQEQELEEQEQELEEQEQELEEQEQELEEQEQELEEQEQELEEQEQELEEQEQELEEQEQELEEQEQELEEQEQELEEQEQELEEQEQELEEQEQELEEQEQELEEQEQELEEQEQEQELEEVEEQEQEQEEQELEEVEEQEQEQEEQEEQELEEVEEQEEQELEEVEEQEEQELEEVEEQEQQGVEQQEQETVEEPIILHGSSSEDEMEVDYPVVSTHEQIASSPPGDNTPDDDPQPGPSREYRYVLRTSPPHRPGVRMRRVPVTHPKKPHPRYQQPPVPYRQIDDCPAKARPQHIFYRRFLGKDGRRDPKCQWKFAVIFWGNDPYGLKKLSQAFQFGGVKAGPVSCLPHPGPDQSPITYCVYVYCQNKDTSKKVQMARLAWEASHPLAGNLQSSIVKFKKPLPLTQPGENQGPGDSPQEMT
Description: inhibitors of C-LANA binding to LBS DNA, dose response, biochemical, fluorescence polarization, cherry-picked samples (AID 504725).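 Note: fluorescence polarization of a labeled DNA duplex reporting LANA DNA binding; potency is for inhibitors that block LANA binding to the DNA.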 The arrangement: species or system Human gammaherpesvirus 8. On the technique in general: Fluorescence polarisation rises when a labelled molecule tumbles more slowly, as on binding a larger partner.

Assay [8] addresses T6, Voltage-gated N-type calcium channel alpha-1B subunit/Amyloid beta A4 precursor protein-binding family A member 1 (Homo sapiens, UniProt Q00975+Q02410). Format: protein assay.
For a further assay, the target named is Large T antigen (Simian virus 40, UniProt P03070). Format: functional, Betapolyomavirus macacae.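 Note: Confirmatory-stage PubChem screen for compounds that inhibit SV40 T antigen.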
Assay [9] concerns the target T6, Voltage-gated N-type calcium channel alpha-1B subunit/Amyloid beta A4 precursor protein-binding family A member 1. Format: protein assay. This is another data set of the same source.
The nature of assay [10]: THP-1 cell cytotoxicity, dose response, cytotoxicity control for non-replicating M. tuberculosis project (AID 489025). Format: functional.
Assay [11] relates to Streptococcus sp. 'group A'. Put plainly: growth inhibition of control SK(-) GAS strain, dose response, counter-screen for streptokinase expression inhibitor project, luminescence, kanamycin, BacTiterGlo, confirmation (AID 1900). Format: functional, organism-based.
A further assay deals with T7, Streptokinase A (Streptococcus pyogenes serotype M1, UniProt P10520).
T7 sequence (P10520 whole entry): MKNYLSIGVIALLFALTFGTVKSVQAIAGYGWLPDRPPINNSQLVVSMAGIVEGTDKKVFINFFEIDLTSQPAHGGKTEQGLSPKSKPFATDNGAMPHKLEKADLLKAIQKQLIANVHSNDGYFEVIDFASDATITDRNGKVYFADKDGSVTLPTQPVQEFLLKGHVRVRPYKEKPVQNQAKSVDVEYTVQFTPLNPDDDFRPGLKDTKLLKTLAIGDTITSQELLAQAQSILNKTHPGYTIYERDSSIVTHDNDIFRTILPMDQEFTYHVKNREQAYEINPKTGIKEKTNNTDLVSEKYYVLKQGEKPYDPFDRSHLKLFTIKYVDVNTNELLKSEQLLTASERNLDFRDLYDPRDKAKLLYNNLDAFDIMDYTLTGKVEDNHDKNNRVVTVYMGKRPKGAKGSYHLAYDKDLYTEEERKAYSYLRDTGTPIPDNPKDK
Put plainly: S. pyogenes streptokinase expression inhibitors, potency, dose response, plasminogen activation absorbance, OD405 (AID 1914).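 Note: secreted streptokinase activity via plasminogen activation per viability signal from cell pellet.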 Format: functional, Streptococcus pyogenes M1 GAS.

The subject of a further assay is Streptococcus. Put plainly: Group A Streptococcus viability loss, dose response, counter-screen for streptokinase expression inhibitor project, luminescence, BacTiterGlo (AID 1915).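 Note: potency for reduction of bacterial viability or growth.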 Format: functional, organism-based.
In assay [12] the target is Intestinal-type alkaline phosphatase (Mus musculus, UniProt P24822). Description: PubChem AID 488874. Format: functional.
The target of assay [13] is T8, Intestinal-type alkaline phosphatase (Homo sapiens, UniProt P09923). Put plainly: human intestinal alkaline phosphatase activators, dose response, biochemical, luminescence, uHTS hits (AID 463120). Format: functional.
T8 sequence (P09923 whole entry): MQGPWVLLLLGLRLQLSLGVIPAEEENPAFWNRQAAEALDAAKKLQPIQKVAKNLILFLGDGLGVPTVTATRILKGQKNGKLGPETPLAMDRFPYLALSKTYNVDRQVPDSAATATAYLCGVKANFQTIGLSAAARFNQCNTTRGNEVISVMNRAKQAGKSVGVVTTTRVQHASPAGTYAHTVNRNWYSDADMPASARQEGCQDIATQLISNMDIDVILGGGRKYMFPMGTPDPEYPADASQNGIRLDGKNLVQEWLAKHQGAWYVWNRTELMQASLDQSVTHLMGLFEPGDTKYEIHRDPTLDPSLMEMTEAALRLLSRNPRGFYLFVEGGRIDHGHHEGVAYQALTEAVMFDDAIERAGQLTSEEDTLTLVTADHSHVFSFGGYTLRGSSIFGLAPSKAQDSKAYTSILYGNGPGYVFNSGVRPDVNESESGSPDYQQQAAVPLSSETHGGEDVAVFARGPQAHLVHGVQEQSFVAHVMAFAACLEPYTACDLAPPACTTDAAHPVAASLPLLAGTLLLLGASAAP
Assay [14] has as its target T8, Intestinal-type alkaline phosphatase. Description: human IAP activators, dose response, biochemical, luminescent, uHTS hits, set 2 (AID 488817).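 Note: potency of activators that raise enzyme activity.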 Format: functional.
Assay [15] concerns the target T9, Alkaline phosphatase, tissue-nonspecific isozyme (Homo sapiens, UniProt P05186).
T9 sequence (P05186 whole entry): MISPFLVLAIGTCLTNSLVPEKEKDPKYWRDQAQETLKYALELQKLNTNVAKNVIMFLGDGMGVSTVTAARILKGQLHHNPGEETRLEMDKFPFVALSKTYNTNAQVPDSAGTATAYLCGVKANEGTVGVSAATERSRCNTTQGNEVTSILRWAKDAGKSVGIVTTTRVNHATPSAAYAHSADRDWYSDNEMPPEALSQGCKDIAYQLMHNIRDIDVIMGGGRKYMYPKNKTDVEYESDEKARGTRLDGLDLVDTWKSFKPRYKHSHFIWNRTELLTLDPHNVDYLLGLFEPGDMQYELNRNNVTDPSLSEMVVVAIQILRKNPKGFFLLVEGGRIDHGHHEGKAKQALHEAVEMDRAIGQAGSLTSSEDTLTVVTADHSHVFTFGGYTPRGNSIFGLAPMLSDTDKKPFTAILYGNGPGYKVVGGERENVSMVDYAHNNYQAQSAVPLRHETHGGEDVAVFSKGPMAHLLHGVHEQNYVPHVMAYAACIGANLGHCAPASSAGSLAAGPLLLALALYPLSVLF
Description: TNAP enzyme activators, dose response, selectivity assay for human IAP activator project, biochemical, TNAP isozyme, human IAP uHTS hits (AID 488886).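 Note: potency of compounds raising TNAP activity as a selectivity check on IAP activators.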 Format: functional.

Assay [16] deals with Eukaryotic translation initiation factor 4H (Homo sapiens, UniProt Q15056). Put plainly: human eIF4H binding inhibitors, primary screen, translation initiation inhibitor project, biochemical, uHTS, fluorescence polarization (AID 2012).
Assay [17] addresses Polyadenylate-binding protein 1 (Homo sapiens, UniProt P11940). Put plainly: PABP poly(A) RNA binding inhibitors, primary screen, biochemical, fluorescence polarization, uHTS (AID 2014).
The target in assay [18] is T1, DNA dC->dU-editing enzyme APOBEC-3A. Description: Dose Response confirmation of small molecule APOBEC3A DNA Deaminase Inhibitors via a fluorescence-based single-stranded DNA deaminase assay. [Related pubchem assays (depositor defined):AID493011, AID493024]. Format: functional.
The target in assay [19] is T2, DNA dC->dU-editing enzyme APOBEC-3G. Format: functional.
Assay [20] addresses T10, Rac GTPase-activating protein 1 (Homo sapiens, UniProt Q9H0H5).
T10 sequence (Q9H0H5 whole entry): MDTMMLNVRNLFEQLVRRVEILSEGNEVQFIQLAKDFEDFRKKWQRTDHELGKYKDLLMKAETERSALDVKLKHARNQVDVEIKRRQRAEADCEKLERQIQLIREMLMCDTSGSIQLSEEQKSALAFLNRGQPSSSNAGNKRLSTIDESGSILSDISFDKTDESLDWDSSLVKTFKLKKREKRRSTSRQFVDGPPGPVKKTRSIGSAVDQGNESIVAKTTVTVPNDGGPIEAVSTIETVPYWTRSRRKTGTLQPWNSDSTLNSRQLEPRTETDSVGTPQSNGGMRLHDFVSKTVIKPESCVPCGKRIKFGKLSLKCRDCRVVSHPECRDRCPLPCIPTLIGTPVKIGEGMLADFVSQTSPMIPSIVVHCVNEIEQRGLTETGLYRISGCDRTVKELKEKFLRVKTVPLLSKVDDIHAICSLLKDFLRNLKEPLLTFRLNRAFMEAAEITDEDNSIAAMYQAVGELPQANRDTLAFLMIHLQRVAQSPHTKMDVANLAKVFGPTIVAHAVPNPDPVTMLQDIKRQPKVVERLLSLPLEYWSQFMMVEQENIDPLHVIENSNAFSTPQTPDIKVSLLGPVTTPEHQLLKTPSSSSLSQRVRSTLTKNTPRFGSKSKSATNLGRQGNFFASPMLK
Put plainly: MgcRacGAP GTPase-activating activity inhibitors, confirmation, biochemical, ADP Hunter fluorescence, primary and confirmatory (AID 624330). Format: functional.

The source made the active and inactive calls.

T2 sequence (Q9HC16 whole entry): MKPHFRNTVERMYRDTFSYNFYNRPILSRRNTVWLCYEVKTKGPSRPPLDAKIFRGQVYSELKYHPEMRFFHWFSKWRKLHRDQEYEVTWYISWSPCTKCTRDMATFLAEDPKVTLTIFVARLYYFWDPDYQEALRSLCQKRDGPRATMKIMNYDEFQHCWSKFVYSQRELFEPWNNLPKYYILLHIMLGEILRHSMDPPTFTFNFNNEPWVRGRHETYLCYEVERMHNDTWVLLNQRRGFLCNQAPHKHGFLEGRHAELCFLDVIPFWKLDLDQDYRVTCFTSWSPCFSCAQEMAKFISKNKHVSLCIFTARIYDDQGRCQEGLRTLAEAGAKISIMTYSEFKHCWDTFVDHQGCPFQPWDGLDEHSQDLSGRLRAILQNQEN
T6 sequence (Q00975 whole entry): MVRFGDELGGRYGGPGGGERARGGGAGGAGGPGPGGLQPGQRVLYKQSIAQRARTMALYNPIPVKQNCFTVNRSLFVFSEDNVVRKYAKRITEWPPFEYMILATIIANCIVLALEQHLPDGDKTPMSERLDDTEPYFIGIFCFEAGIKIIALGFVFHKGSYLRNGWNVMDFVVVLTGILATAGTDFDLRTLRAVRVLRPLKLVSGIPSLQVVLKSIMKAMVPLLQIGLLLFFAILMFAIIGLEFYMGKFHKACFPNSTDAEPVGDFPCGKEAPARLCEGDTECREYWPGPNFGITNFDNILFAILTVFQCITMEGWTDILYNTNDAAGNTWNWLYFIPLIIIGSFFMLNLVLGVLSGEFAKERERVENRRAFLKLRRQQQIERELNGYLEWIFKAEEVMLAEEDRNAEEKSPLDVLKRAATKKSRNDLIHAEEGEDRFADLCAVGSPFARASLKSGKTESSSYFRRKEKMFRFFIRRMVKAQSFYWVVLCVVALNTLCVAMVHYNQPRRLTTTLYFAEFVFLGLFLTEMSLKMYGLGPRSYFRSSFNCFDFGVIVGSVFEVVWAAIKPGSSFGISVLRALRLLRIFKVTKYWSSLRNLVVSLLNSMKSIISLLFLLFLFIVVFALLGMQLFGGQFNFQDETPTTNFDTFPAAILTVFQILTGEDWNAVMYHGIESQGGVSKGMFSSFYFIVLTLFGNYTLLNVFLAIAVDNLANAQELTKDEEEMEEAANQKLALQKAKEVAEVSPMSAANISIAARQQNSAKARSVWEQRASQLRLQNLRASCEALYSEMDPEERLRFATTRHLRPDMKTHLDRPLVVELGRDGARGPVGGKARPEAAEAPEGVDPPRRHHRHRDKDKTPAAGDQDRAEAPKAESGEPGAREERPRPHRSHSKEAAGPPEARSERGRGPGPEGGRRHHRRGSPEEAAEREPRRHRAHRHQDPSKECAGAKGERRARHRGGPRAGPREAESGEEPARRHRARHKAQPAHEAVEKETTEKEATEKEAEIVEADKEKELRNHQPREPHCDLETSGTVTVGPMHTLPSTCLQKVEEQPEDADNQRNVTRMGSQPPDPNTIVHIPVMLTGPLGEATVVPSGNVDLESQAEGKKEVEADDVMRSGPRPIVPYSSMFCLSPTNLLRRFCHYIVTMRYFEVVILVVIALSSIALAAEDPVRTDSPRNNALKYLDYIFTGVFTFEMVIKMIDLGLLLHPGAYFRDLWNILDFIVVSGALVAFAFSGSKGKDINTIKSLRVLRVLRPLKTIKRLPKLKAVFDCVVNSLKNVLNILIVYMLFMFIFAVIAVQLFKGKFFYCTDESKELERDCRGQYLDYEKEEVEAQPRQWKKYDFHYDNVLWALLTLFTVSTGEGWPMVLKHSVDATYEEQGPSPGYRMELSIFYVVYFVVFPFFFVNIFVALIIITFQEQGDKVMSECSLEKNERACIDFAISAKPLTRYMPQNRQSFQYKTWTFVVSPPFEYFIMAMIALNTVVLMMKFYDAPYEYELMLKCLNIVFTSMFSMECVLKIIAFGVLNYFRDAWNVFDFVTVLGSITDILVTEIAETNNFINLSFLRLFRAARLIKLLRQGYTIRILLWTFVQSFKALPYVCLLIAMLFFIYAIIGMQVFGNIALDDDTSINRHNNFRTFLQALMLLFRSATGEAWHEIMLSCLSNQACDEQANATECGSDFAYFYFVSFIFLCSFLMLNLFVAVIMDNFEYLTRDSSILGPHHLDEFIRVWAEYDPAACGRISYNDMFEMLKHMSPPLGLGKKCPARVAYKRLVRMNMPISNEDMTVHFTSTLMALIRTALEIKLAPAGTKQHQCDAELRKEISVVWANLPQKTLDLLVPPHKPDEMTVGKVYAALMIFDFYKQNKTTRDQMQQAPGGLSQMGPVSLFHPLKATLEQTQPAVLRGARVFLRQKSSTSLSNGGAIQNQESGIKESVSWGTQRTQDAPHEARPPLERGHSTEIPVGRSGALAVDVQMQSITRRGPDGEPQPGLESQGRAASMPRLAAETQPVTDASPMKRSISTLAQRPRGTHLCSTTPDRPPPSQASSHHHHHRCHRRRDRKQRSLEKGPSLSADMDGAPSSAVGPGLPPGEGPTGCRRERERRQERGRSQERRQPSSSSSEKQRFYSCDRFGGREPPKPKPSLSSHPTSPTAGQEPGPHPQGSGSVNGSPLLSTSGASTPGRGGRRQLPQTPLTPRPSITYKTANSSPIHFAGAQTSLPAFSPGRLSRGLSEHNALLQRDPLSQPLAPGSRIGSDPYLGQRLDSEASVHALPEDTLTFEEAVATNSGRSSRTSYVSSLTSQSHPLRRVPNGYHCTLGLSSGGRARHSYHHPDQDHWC
T6 sequence (Q02410 whole entry): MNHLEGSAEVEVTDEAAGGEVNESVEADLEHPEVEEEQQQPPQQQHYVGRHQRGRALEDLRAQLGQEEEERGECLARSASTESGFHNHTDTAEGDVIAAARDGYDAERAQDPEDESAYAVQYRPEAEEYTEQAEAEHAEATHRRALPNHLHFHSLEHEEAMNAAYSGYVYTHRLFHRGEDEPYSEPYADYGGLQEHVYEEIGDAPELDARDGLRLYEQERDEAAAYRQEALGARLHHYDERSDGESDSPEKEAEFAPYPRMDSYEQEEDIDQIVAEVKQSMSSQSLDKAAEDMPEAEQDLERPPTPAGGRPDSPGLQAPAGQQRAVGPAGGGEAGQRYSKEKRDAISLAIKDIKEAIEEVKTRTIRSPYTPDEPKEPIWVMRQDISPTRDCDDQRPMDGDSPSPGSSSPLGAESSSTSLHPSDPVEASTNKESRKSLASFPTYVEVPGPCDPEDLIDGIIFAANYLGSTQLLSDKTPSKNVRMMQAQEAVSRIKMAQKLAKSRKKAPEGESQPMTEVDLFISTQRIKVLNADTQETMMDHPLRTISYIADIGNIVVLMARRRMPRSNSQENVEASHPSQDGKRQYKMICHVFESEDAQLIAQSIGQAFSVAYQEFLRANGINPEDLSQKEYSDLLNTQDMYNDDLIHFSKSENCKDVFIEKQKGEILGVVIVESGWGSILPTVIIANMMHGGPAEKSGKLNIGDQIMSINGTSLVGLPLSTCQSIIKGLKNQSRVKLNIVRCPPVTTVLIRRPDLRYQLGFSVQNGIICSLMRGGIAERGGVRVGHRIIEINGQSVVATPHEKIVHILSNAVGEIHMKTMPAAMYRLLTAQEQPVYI
Glucose-6-phosphate 1-dehydrogenase, sequence (P11413 whole entry): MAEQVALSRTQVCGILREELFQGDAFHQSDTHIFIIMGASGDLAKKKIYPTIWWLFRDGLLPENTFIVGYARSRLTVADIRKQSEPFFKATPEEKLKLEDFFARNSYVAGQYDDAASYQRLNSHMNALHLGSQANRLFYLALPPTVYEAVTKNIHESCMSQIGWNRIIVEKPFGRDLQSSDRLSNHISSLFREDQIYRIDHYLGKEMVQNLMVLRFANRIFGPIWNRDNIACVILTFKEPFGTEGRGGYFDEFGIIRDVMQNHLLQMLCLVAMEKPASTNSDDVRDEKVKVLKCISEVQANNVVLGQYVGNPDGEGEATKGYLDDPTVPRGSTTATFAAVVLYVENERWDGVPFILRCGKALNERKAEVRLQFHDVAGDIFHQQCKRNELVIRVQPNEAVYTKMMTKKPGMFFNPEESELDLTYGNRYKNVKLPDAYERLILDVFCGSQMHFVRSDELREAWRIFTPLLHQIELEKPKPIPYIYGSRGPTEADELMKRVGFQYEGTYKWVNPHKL

In the case of `COc1cc(SSc2cc(OC)cc([N+](=O)[O-])c2N)c(N)c([N+](=O)[O-])c1`, the IC50 in assay [1] was > 54 µM (active); in [2], > 100 µM (inactive); in [3], 20.9 µM (inactive); in [4], 2.54 µM (active). In addition, the EC50 in assay [5] is > 260 µM (inactive).

For the compound `COc1cc2c(cc1OC)-c1cc3ccc4c(c3c[n+]1CC2)OCO4`, the IC50 on SUMO-activating enzyme [6] is 4.17 µM (active); at SUMO-activating enzyme [7] it was 8.68 µM (active). In addition, the AC50 on ORF 73 was 20.5 µM (active).

As for `CCOc1ccc(NC(=O)Cn2sc3nc(C)cc(C)c3c2=O)cc1`, the IC50 is 13.1 µM (active) in [8]; > 100 µM (active) at Large T antigen; > 50 µM (inactive) in [9]; > 100 µM (inactive) in [2]; 24.1 µM (inactive) in [3]; 2.96 µM (active) in assay [4]. Also, the CC50 in assay [10] is 36.1 µM (active).

`O=C(CCN1C(=O)/C(=C/c2ccccc2Cl)SC1=S)NNC(=O)c1ccccc1O`: the EC50 in [11] was 3.63 µM (active); at Streptokinase A it was 8.36 µM (active); with Streptococcus it was 14.6 µM (active); in assay [13], 7.7 µM (active); in [14], 17.7 µM (active); in [15], 23.2 µM (active). In addition, the IC50 in assay [12] was 66.5 µM (active).

Turning to `CCOC(=O)COc1ccc(Br)cc1/C=C1\SC(N)=NC1=O`, the IC50 was > 100 µM (inactive) in [16], 7.13 µM (active) in [17], 8.37 µM (active) in assay [18] and 8.41 µM (active) in assay [19].

Consider `Cc1ccc(C)c(NC(=O)c2cc[n+](C)cc2)c1`, for which the IC50 in assay [18] is 2.08 µM (active); in assay [19], 4.76 µM (active).

`COc1cc(/C=N/n2c(S)nnc2-c2cc(C)[nH]n2)cc(OC)c1OC`: the figures for the IC50 in assay [2], in assay [4] and in assay [20] were > 100 µM (inactive), 2.5 µM (active) and 82.2 µM (active), respectively.
